From ChEMBL document CHEMBL1201862, “PubChem BioAssay data set” (2004)
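Interpolation was linear, between the two tested concentrations surrounding the appropriate level; five concentrations were tested over 48 hours in 96-well plates. GI50 marks 50% less growth.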 Activity calls are given as the source filed them. Cut-off read from the data, not from the text of the source: active = GI50 up to about 1.1 µM and inactive = higher. Peptide text beside a SMILES is read from it. * marks the point of attachment. Boc = CC(C)(C)OC(=O)*

Legend:
Test in all cases: NCI anticancer screen, dose series, 48 h
[1] = system: IGROV-1
[2] = system: TK-10
[3] = system: A549
[4] = system: MDA-MB-231
[5] = system: SK-MEL-28
[6] = system: SNB-19
[7] = system: NCI-H460
[8] = system: UO-31
[9] = system: MCF7
[10] = system: DU-145
[11] = system: NCI-H522
[12] = system: PC-3
[13] = system: SK-OV-3
[14] = system: SK-MEL-5
[15] = system: UACC-62
[16] = system: HCC 2998
[17] = system: NCI-H23
[18] = system: HL-60
[19] = system: U-251
[20] = system: OVCAR-5

Measured: GI50

NC1=NNC2(C(N)=N1)c1ccccc1-c1ccccc12
inactive: [1] > 10 µM | [2] > 10 µM | [3] > 10 µM | [4] > 10 µM | [5] > 10 µM | [6] > 10 µM | [7] > 10 µM | [8] 5.13 µM | [9] > 10 µM | [10] > 10 µM | [11] > 10 µM | [12] > 10 µM | [13] > 10 µM | [14] > 10 µM | [15] > 10 µM | [16] > 10 µM | [17] > 10 µM | [18] > 10 µM

CC(=O)CC(O)(C(F)(F)Cl)C(F)(Cl)Cl (stereo not drawn)
inactive: [1] > 10 µM | [2] > 10 µM | [19] > 10 µM | [3] > 10 µM | [4] > 10 µM | [5] > 10 µM | [6] > 10 µM | [7] > 10 µM | [8] > 10 µM | [9] > 10 µM | [10] > 10 µM | [11] > 10 µM | [12] > 10 µM | [13] > 10 µM | [14] > 10 µM | [15] > 10 µM | [16] > 10 µM | [17] > 10 µM | [18] > 10 µM

COc1ccc(N2C(=O)C3c4[nH]c5cc(Cl)ccc5c4C4CCC(C(C)(C)C)CC4C3C2=O)cc1 (stereo not drawn)
inactive: [1] > 100 µM | [2] > 100 µM | [19] 95.1 µM | [3] 60.7 µM | [4] > 100 µM | [5] > 100 µM | [6] > 100 µM | [7] 35.9 µM | [8] 70.5 µM | [9] 33.7 µM | [10] > 100 µM | [11] > 100 µM | [12] 29.2 µM | [13] > 100 µM | [14] > 100 µM | [15] > 100 µM | [16] 44 µM | [17] 93.3 µM | [18] 26.9 µM

COC(=O)C1=Nc2c(C)nn(-c3ccccc3)c2N=C(c2ccc([N+](=O)[O-])cc2)C1
inactive: [1] > 10 µM | [2] > 10 µM | [19] > 10 µM | [3] > 10 µM | [4] > 10 µM | [5] > 10 µM | [6] > 10 µM | [9] > 10 µM | [10] > 10 µM | [11] > 10 µM | [12] > 10 µM | [13] > 10 µM | [14] > 10 µM | [15] > 10 µM | [16] > 10 µM | [17] > 10 µM | [20] 5.98 µM | [18] > 10 µM

COC(=O)C(Cc1c[nH]c2ccccc12)NC(=O)C(Cc1c[nH]c2ccccc12)NC(=O)C(Cc1c[nH]c2ccccc12)NC(=O)C(Cc1c[nH]c2ccccc12)NC(=O)C(Cc1c[nH]c2ccccc12)NC(=O)OC(C)(C)C (stereo not drawn) (Boc-WWWWW-OMe; configuration not given here)
inactive: [1] 30 µM | [2] > 100 µM | [19] 65.9 µM | [3] 67 µM | [4] > 100 µM | [5] 55.7 µM | [6] 39 µM | [7] 84.1 µM | [8] 36.6 µM | [9] 84.1 µM | [10] 33.4 µM | [11] 46 µM | [12] > 100 µM | [14] 17.5 µM | [15] 26.5 µM | [16] > 100 µM | [17] 58.1 µM | [20] > 100 µM | [18] 33 µM
